Assay results published in the supplement of paper PMC10307832.

How the values were obtained:
Test in all cases: relative viability (nuclei count vs DMSO), 5 days (fraction); higher = more cells survive
Selumetinib + Crizotinib = compound: Cn1cnc2c(F)c(Nc3ccc(Br)cc3Cl)c(C(=O)NOCCO)cc21 [Selumetinib] + C[C@@H](Oc1cc(-c2cnn(C3CCNCC3)c2)cnc1N)c1c(Cl)ccc(F)c1Cl [Crizotinib] (partner 1 µM)
Procedure, shortened: (§1)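 Nuclei were stained with Hoechst during a one-step fixation (final 0.05% Triton X-100, 1% formaldehyde, 1 ug/ml Hoechst) carried out 5 days after dosing, then counted on 4× images. The cells, lung cancer lines in 1536-well plates, had been dosed by pin tool the day after seeding with one drug alone or a fixed anchor-drug dose plus five library-drug doses (not always all listed) in √10 steps. Relative viability is the nuclei count in treated wells divided by that in vehicle wells, and each value is the median of duplicate plates.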

Venetoclax + AZD7762 = compound: CC1(C)CCC(CN2CCN(c3ccc(C(=O)NS(=O)(=O)c4ccc(NCC5CCOCC5)c([N+](=O)[O-])c4)c(Oc4cnc5[nH]ccc5c4)c3)CC2)=C(c2ccc(Cl)cc2)C1 [Venetoclax] + NC(=O)Nc1cc(-c2cccc(F)c2)sc1C(=O)N[C@H]1CCCNC1 [AZD7762] (partner 0.2 µM)
Procedure, shortened: as §1

Selumetinib + Foretinib = compound: Cn1cnc2c(F)c(Nc3ccc(Br)cc3Cl)c(C(=O)NOCCO)cc21 [Selumetinib] + COc1cc2c(Oc3ccc(NC(=O)C4(C(=O)Nc5ccc(F)cc5)CC4)cc3F)ccnc2cc1OCCCN1CCOCC1 [Foretinib] (partner 0.25 µM)
Procedure, shortened: as §1

Venetoclax + Olaparib = compound: CC1(C)CCC(CN2CCN(c3ccc(C(=O)NS(=O)(=O)c4ccc(NCC5CCOCC5)c([N+](=O)[O-])c4)c(Oc4cnc5[nH]ccc5c4)c3)CC2)=C(c2ccc(Cl)cc2)C1 [Venetoclax] + O=C(c1cc(Cc2n[nH]c(=O)c3ccccc23)ccc1F)N1CCN(C(=O)C2CC2)CC1 [Olaparib] (partner 8 µM)
Procedure, shortened: as §1

| Cell Line | relative viability (Selumetinib + Crizotinib; first compound 0.02 µM) | relative viability (Selumetinib + Crizotinib; first compound 0.06325 µM) | relative viability (Selumetinib + Crizotinib; first compound 0.2 µM) | relative viability (Selumetinib + Crizotinib; first compound 0.6325 µM) | relative viability (Venetoclax + AZD7762; first compound 0.01 µM) | relative viability (Venetoclax + AZD7762; first compound 0.03162 µM) | relative viability (Venetoclax + AZD7762; first compound 0.1 µM) | relative viability (Venetoclax + AZD7762; first compound 0.3162 µM) | relative viability (Venetoclax + AZD7762; first compound 1 µM) | relative viability (Selumetinib + Foretinib; first compound 0.02 µM) | relative viability (Selumetinib + Foretinib; first compound 0.06325 µM) | relative viability (Selumetinib + Foretinib; first compound 0.2 µM) | relative viability (Selumetinib + Foretinib; first compound 0.6325 µM) | relative viability (Venetoclax + Olaparib; first compound 0.01 µM) | relative viability (Venetoclax + Olaparib; first compound 0.03162 µM) | relative viability (Venetoclax + Olaparib; first compound 0.1 µM) | relative viability (Venetoclax + Olaparib; first compound 0.3162 µM) | relative viability (Venetoclax + Olaparib; first compound 1 µM) |
| --- | --- | --- | --- | --- | --- | --- | --- | --- | --- | --- | --- | --- | --- | --- | --- | --- | --- | --- |
| LCLC-97TM1 | 0.527 | 0.496 | 0.467 | 0.504 | 0.323 | 0.26 | 0.263 | 0.266 | 0.25 | 0.898 | 0.818 | 0.585 | 0.525 | 0.242 | 0.297 | 0.37 | 0.323 | 0.365 |
| LCLC-103H | 1.02 | 0.846 | 0.857 | 0.948 | 0.837 | 0.737 | 0.809 | 0.817 | 0.734 | 0.744 | 0.64 | 0.646 | 0.72 | 0.778 | 0.846 | 0.783 | 0.787 | 0.752 |
| LK-2 | 0.239 | 0.234 | 0.229 | 0.262 | 0.634 | 0.673 | 0.461 | 0.356 | 0.381 | 1.68 | 1.51 | 0.968 | 1.23 | 0.934 | 0.98 | 0.848 | 0.619 | 0.716 |
| LOU-NH91 | 0.709 | 0.715 | 0.683 | 0.677 | 0.766 | 0.8 | 0.723 | 0.777 | 0.63 | 0.87 | 0.859 | 0.834 | 0.738 | 0.821 | 0.88 | 0.965 | 0.919 | 0.856 |
| LU99A | 0.615 | 0.556 | 0.558 | 0.544 | 0.343 | 0.391 | 0.251 | 0.367 | 0.307 | 0.898 | 0.729 | 0.83 | 0.699 | 0.301 | 0.287 | 0.255 | 0.283 | 0.254 |
| LXF-289 | 0.872 | 0.7 | 0.664 | 0.616 | 1.19 | 1.06 | 1.02 | 1.06 | 1.01 | 0.939 | 0.867 | 0.738 | 0.737 | 1.07 | 1.09 | 1.1 | 0.993 | 0.94 |
| NCI-H23 | 0.583 | 0.47 | 0.328 | 0.406 | 0.198 | 0.268 | 0.279 | 0.262 | 0.199 | 0.952 | 0.916 | 0.654 | 0.612 | 0.311 | 0.26 | 0.367 | 0.376 | 0.304 |
| NCI-H322M | 0.708 | 0.807 | 0.796 | 0.828 | 0.606 | 0.608 | 0.424 | 0.591 | 0.649 | 0.853 | 0.782 | 0.704 | 0.757 | 0.738 | 0.799 | 0.76 | 0.764 | 0.785 |
| NCI-H358 | 0.467 | 0.368 | 0.326 | 0.319 | 0.338 | 0.527 | 0.556 | 0.714 | 0.558 | 0.43 | 0.331 | 0.272 | 0.291 | 0.567 | 0.651 | 0.575 | 0.773 | 0.579 |
| NCI-H441 | 0.724 | 0.858 | 0.78 | 0.556 | 1.14 | 1.27 | 1.05 | 1.4 | 1.09 | 0.964 | 0.839 | 0.903 | 0.667 | 0.627 | 0.646 | 0.568 | 0.611 | 0.582 |
| NCI-H460 | 0.852 | 0.714 | 0.672 | 0.544 | 0.754 | 0.653 | 0.619 | 0.669 | 0.566 | 0.949 | 0.899 | 0.886 | 0.404 | 0.39 | 0.414 | 0.359 | 0.44 | 0.398 |
| NCI-H596 | 0.966 | 0.875 | 0.845 | 0.599 | 1.12 | 0.975 | 1.27 | 1.12 | 1.2 | 0.832 | 0.781 | 0.696 | 0.653 | 0.764 | 0.709 | 0.711 | 0.696 | 0.759 |
| NCI-H647 | 1.14 | 0.942 | 0.926 | 0.99 | 0.402 | 0.429 | 0.364 | 0.539 | 0.394 | 1.19 | 1.21 | 0.842 | 1.02 | 0.521 | 0.698 | 0.424 | 0.564 | 0.535 |
| NCI-H650 | 0.793 | 0.593 | 0.575 | 0.67 | 0.986 | 1.1 | 0.872 | 1.22 | 0.899 | 1.07 | 1.18 | 1.21 | 1.17 | 0.356 | 0.425 | 0.375 | 0.383 | 0.365 |
| NCI-H727 | 0.558 | 0.348 | 0.316 | 0.255 | 0.592 | 0.769 | 0.423 | 0.648 | 0.604 | 0.468 | 0.434 | 0.329 | 0.352 | 0.758 | 0.801 | 0.803 | 0.836 | 0.641 |
| NCI-H838 | 0.783 | 0.689 | 0.634 | 0.601 | 0.93 | 0.999 | 0.877 | 0.923 | 0.837 | 0.907 | 0.915 | 0.859 | 0.796 | 0.784 | 0.758 | 0.824 | 0.776 | 0.764 |
| NCI-H1355 | 1.06 | 1.1 | 0.796 | 0.681 | 0.723 | 0.733 | 0.705 | 0.716 | 0.652 | 0.954 | 0.847 | 0.539 | 0.625 | 0.772 | 0.815 | 0.774 | 0.734 | 0.757 |
